Experimental data published in patent US20240398784A1, “C-LINKED ISOQUINOLINE AMIDES AS LRRK2 INHIBITORS, PHARMACEUTICAL COMPOSITIONS, AND USES THEREOF” (Merck Sharp & Dohme LLC, priority 2021, published 2024).

What follows are compounds tested against LRRK2 G2019S (Homo sapiens, UniProt Q5S007, G2019S) (assay: LRRK2 G2019S Km ATP LanthaScreen assay). Settings: read-out: LRRK2 pIC50 (converted).
Format: biochemical

Sequence of LRRK2 G2019S (Q5S007 whole entry G2019S): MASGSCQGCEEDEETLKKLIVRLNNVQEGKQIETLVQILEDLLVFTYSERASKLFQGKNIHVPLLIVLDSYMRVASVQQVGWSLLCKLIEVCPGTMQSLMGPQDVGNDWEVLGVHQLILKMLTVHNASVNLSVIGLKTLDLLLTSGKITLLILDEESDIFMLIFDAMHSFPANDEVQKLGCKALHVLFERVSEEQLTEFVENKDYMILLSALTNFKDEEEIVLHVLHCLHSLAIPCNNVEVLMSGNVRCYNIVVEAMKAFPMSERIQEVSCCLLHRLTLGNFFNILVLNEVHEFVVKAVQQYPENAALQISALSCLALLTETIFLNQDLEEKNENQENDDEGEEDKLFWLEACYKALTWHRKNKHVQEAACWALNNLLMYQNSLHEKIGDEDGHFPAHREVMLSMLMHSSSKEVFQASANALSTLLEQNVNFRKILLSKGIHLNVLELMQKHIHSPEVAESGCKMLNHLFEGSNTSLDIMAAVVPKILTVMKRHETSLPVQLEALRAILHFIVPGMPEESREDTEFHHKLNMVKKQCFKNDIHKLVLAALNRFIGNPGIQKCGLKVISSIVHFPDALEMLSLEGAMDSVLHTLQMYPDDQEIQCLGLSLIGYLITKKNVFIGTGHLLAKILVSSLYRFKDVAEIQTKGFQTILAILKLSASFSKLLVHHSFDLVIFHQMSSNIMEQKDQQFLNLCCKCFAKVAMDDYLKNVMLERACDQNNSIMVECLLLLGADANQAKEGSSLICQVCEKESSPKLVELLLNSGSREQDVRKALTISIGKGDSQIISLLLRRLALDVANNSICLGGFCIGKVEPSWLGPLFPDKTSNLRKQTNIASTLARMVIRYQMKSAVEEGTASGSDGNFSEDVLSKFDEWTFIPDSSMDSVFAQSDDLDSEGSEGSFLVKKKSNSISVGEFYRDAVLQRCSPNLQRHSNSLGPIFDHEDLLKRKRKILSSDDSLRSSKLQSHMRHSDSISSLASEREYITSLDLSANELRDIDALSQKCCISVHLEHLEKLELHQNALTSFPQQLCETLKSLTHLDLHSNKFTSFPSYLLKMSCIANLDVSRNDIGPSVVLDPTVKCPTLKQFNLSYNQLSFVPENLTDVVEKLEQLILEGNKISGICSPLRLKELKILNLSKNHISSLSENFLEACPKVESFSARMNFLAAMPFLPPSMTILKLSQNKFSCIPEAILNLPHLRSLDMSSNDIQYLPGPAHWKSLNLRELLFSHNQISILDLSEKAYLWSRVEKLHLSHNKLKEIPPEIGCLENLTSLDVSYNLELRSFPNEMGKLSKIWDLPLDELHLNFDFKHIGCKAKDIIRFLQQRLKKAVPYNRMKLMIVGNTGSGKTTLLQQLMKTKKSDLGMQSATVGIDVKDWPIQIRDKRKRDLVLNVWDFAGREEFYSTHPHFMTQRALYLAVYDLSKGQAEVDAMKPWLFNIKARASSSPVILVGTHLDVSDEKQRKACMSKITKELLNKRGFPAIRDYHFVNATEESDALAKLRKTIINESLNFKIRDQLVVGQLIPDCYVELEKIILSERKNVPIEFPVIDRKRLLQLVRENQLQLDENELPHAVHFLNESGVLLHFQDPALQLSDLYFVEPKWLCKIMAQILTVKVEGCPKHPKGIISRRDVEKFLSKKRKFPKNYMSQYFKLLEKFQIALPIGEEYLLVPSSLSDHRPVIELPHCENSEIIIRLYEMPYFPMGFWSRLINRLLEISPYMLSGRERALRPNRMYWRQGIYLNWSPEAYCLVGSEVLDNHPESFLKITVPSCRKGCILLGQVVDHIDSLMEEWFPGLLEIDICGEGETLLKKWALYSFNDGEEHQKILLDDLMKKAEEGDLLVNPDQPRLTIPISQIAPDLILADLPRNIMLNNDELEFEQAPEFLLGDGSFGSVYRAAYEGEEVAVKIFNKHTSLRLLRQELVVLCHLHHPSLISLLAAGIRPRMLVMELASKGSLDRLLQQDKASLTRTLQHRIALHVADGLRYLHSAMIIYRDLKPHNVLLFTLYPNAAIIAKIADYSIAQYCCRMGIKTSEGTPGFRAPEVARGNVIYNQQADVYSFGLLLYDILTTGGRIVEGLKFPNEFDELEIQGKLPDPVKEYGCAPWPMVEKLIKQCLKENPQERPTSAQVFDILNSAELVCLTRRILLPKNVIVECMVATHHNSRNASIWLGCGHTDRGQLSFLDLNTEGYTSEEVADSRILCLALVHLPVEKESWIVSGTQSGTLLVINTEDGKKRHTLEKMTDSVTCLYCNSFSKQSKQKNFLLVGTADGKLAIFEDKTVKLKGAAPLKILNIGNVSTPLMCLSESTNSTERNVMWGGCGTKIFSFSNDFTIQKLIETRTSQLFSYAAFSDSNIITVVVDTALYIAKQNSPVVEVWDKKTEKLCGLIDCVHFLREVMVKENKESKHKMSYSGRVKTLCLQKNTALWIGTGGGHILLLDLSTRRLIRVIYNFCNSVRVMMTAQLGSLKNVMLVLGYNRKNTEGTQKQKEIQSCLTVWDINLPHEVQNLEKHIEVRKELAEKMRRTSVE

Row | IC50 [nM] | Compound
1 | 0.102 | CC1(N2CCC(c3cc4cc(NC(=O)C5COC6(CCC6)C5)ncc4cc3Cl)CC2)COCC1O (single isomer, unassigned) [Ex-4.17, N-(7-chloro-6-(1-(4-hydroxy-3-methyltetrahydrofuran-3-yl)piperidin-4-yl)isoquinolin-3-yl)-5-oxaspiro[3.4]octane-7-carboxamide]
2 | 0.166 | CC1(N2CCC(c3cc4cc(NC(=O)C5COC6(CCC6)C5)ncc4cc3Cl)CC2)COCC1O (single isomer, unassigned) [Ex-4.18, N-(7-chloro-6-(1-(4-hydroxy-3-methyltetrahydrofuran-3-yl)piperidin-4-yl)isoquinolin-3-yl)-5-oxaspiro[3.4]octane-7-carboxamide]
3 | 2.14 | O=C(Nc1cc2cc(C3CCN(C4COC4)CC3)c(Cl)cc2cn1)C1CC1 [Ex-7.6, N-(7-chloro-6-(1-(oxetan-3-yl)piperidin-4-yl)isoquinolin-3-yl)cyclopropanecarboxamide]
4 | 0.234 | CC(C)(O)C1CC1C(=O)Nc1cc2cc(C3CCN(C4(C)COCC4F)CC3)c(Cl)cc2cn1 (single isomer, unassigned) [Ex-6.26, N-(7-chloro-6-(1-(4-fluoro-3-methyltetrahydrofuran-3-yl)piperidin-4-yl)isoquinolin-3-yl)-2-(2-hydroxypropan-2-yl)cyclopropane-1-carboxamide]
5 | 5.75 | CC1CC1C(=O)Nc1cc2cc(C3CCN(C4COC4)CC3)c(Cl)cc2cn1 (single isomer, unassigned) [Ex-9.4, N-(7-chloro-6-(1-(oxetan-3-yl)piperidin-4-yl)isoquinolin-3-yl)-2-methylcyclopropane-1-carboxamide]
6 | 0.813 | CC1COCC1(C)N1CCC(c2cc3cc(NC(=O)C4CC45CCOCC5)ncc3cc2Cl)CC1 (single isomer, unassigned) [Ex-6.9, N-(7-chloro-6-(1-(3,4-dimethyltetrahydrofuran-3-yl)piperidin-4-yl)isoquinolin-3-yl)-6-oxaspiro[2.5]octane-1-carboxamide]
7 | 2.4 | Cc1cc2cnc(NC(=O)C3CC34CCOC4)cc2cc1C1CCN(C2(C)COCC2F)CC1 (single isomer, unassigned) [Ex-15.9, N-(6-(1-(4-fluoro-3-methyltetrahydrofuran-3-yl)piperidin-4-yl)-7-methylisoquinolin-3-yl)-5-oxaspiro[2.4]heptane-1-carboxamide]
8 | 0.186 | CC1(N2CCC(c3cc4cc(NC(=O)C5CC56CCOCC6)ncc4cc3Cl)C(F)C2)COCC1O (single isomer, unassigned) [Ex-14.4, N-(7-chloro-6-(3-fluoro-1-(4-hydroxy-3-methyltetrahydrofuran-3-yl)piperidin-4-yl)isoquinolin-3-yl)-6-oxaspiro[2.5]octane-1-carboxamide]
9 | 0.631 | Cn1cc(C(=O)Nc2cc3cc(C4CCN(C5COCC5O)CC4)c(Cl)cc3cn2)cn1 (stereo not drawn) [Ex-3.5]
10 | 20 | CN1CCOC(CC(=O)Nc2cc3cc(C4(C#N)CC45CC5)ccc3cn2)C1 (single isomer, unassigned) [Ex-1.47, (R or S)-N-(6-(1-cyanospiro[2.2]pentan-1-yl)isoquinolin-3-yl)-2-(4-methylmorpholin-2-yl)acetamide]
11 | 0.182 | CC1(N2CCC(c3cc4cc(NC(=O)C5C6CCCOC65)ncc4cc3Cl)CC2)COCC1O (single isomer, unassigned) [Ex-4.13, N-(7-chloro-6-(1-(4-hydroxy-3-methyltetrahydrofuran-3-yl)piperidin-4-yl)isoquinolin-3-yl)-2-oxabicyclo[4.1.0]heptane-7-carboxamide]
12 | 912 | O=C(Nc1cc2cc(C3CCC(N4CC(F)(F)C4)CC3)c(Cl)cc2cn1)C1CC1c1ccccn1 (single isomer, unassigned) [Ex-5.6, N-(7-chloro-6-(4-(3,3-difluoroazetidin-1-yl)cyclohexyl)isoquinolin-3-yl)-2-(pyridin-2-yl)cyclopropane-1-carboxamide]
13 | 3.02 | CCOC1CC2(C1)CC2C(=O)Nc1cc2cc(C3CCN(C4(C)COCC4O)CC3)c(Cl)cc2cn1 (single isomer, unassigned) [Ex-4.30, N-(7-chloro-6-(1-(4-hydroxy-3-methyltetrahydrofuran-3-yl)piperidin-4-yl)isoquinolin-3-yl)-5-ethoxyspiro[2.3]hexane-1-carboxamide]
14 | 0.0813 | CC1(N2CCC(c3cc4cc(NC(=O)C5CCC5C#N)ncc4cc3Cl)CC2)COCC1F (stereo not drawn) [Ex-2.94]
15 | 479 | CC1(C)CC(C(=O)Nc2cc3cc(C4CCC(N5CCC(F)C5)CC4)c(Cl)cc3cn2)CCO1 (single isomer, unassigned) [Ex-5.13, N-(7-chloro-6-(4-(3-fluoropyrrolidin-1-yl)cyclohexyl)isoquinolin-3-yl)-2,2-dimethyltetrahydro-2H-pyran-4-carboxamid]
16 | 5.62 | CC1(N2CCC(c3cc4cc(NC(=O)C5CC5c5ccccn5)ncc4cc3Cl)CC2)CCOC1 (single isomer, unassigned) [Ex-6.32, N-(7-chloro-6-(1-(3-methyltetrahydrofuran-3-yl)piperidin-4-yl)isoquinolin-3-yl)-2-(pyridin-2-yl)cyclopropane-1-carboxamide]

Row | IC50 [nM] | Compound
17 | 15.5 | CC1(N2CCC(c3cc4cc(NC(=O)C5CC5C(F)F)ncc4cc3Cl)CC2)COCC1O (single isomer, unassigned) [Ex-10.10, N-(7-chloro-6-(1-(4-hydroxy-3-methyltetrahydrofuran-3-yl)piperidin-4-yl)isoquinolin-3-yl)-2-(difluoromethyl)cyclopropane-1-carboxamide]
18 | 1.78 | CC1(C)CC(C(=O)Nc2cc3cc(C4CCC(N5CCC(F)C5)CC4)c(Cl)cc3cn2)CCO1 (single isomer, unassigned) [Ex-5.9, N-(7-chloro-6-(4-(3-fluoropyrrolidin-1-yl)cyclohexyl)isoquinolin-3-yl)-2,2-dimethyltetrahydro-2H-pyran-4-carboxamid]
19 | 0.214 | CC1(N2CCC(c3cc4cc(NC(=O)C5C6COCC65)ncc4cc3Cl)CC2)COCC1O (stereo not drawn) [Ex-2.15]
20 | 2.88 | O=C(Nc1cc2cc(C3CCN(C4COCC4O)CC3)c(Cl)cc2cn1)C1CC1 (single isomer, unassigned) [Ex-12.5, N-(7-chloro-6-(1-(4-hydroxytetrahydrofuran-3-yl)piperidin-4-yl)isoquinolin-3-yl)cyclopropanecarboxamide]
21 | 0.178 | CC1(N2CCC(c3cc4cc(NC(=O)[C@@H]5CCCCO5)ncc4cc3Cl)CC2)COCC1O (single isomer, unassigned) [Ex-1.17, (S)-N-(7-chloro-6-(1-((3R,4R or 3S,4S)-4-hydroxy-3-methyltetrahydrofuran-3-yl)piperidin-4-yl)isoquinolin-3-yl)tetrahydro-2H-pyran-2-carboxamide]
22 | 10.5 | N#CC1(c2ccc3cnc(NC(=O)C4CC45CCOC5)cc3c2)CC12CC2 (stereo not drawn) [Ex-2.64]
23 | 61.7 | CC1C(C(=O)Nc2cc3cc(C4CCN(C5(C)COCC5O)CC4)c(Cl)cc3cn2)C12CCOCC2 (single isomer, unassigned) [Ex-10.5, N-(7-chloro-6-(1-(4-hydroxy-3-methyltetrahydrofuran-3-yl)piperidin-4-yl)isoquinolin-3-yl)-2-methyl-6-oxaspiro[2.5]octane-1-carboxamide]
24 | 0.0813 | CCOC1CC2(C1)CC2C(=O)Nc1cc2cc(C3CCN(C4(C)COCC4F)CC3)c(C)cc2cn1 (single isomer, unassigned) [Ex-16.5, 5-ethoxy-N-(6-(1-(4-fluoro-3-methyltetrahydrofuran-3-yl)piperidin-4-yl)-7-methylisoquinolin-3-yl)spiro[2.3]hexane-1-carboxamide]
25 | 0.132 | Cc1cc2cnc(NC(=O)C3CC3c3ccccn3)cc2cc1C1CCN(C2(C)CCOC2)CC1 (single isomer, unassigned) [Ex-16.9, N-(7-methyl-6-(1-(3-methyltetrahydrofuran-3-yl)piperidin-4-yl)isoquinolin-3-yl)-2-(pyridin-2-yl)cyclopropane-1-carboxamide]
26 | 9.77 | CC1(C)CC(C(=O)Nc2cc3cc(C4(C#N)CC45CC5)ccc3cn2)CC(C)(C)O1 (single isomer, unassigned) [Ex-1.27, N-(6-((R or S)-1-cyanospiro[2.2]pentan-1-yl)isoquinolin-3-yl)-2,2,6,6-tetramethyltetrahydro-2H-pyran-4-carboxamide]
27 | 0.631 | CC1CC1C(=O)Nc1cc2cc(C3CCN(C4COC4)CC3)c(Cl)cc2cn1 (single isomer, unassigned) [Ex-9.3, N-(7-chloro-6-(1-(oxetan-3-yl)piperidin-4-yl)isoquinolin-3-yl)-2-methylcyclopropane-1-carboxamide]
28 | 0.0813 | CC1(N2CCC(c3cc4cc(NC(=O)C5CC5C#N)ncc4cc3Cl)CC2)COCC1O (stereo not drawn) [Ex-2.32]
29 | 41.7 | CC1(N2CCC(c3cc4cc(NC(=O)C5CC56CCOCC6)ncc4cc3Cl)CC2)CCOCC1F (single isomer, unassigned) [Ex-12.1, N-(7-chloro-6-(1-((3R,4R or 3S,4S)-3-fluoro-4-methyltetrahydro-2H-pyran-4-yl)piperidin-4-yl)isoquinolin-3-yl)-6-oxaspiro[2.5]octane-1-carboxamide]
30 | 0.38 | CN1CCC(C(=O)Nc2cc3cc(C4CCN(C5(C)COCC5O)CC4)c(Cl)cc3cn2)CC1 (single isomer, unassigned) [Ex-1.19, N-(7-chloro-6-(1-((3R,4R or 3S,4S)-4-hydroxy-3-methyltetrahydrofuran-3-yl)piperidin-4-yl)isoquinolin-3-yl)-1-methylpiperidine-4-carboxamide]
31 | 5.89 | O=C(Nc1cc2cc(C3CCN(C4COC4)CC3)c(Cl)cc2cn1)C1CCC1 [Ex-7.4, N-(7-chloro-6-(1-(oxetan-3-yl)piperidin-4-yl)isoquinolin-3-yl)cyclobutanecarboxamide]
32 | 0.0813 | CN(C)C1CCC2C(C(=O)Nc3cc4cc(C5CCN(C6(C)COCC6O)CC5)c(Cl)cc4cn3)C21 (single isomer, unassigned) [Ex-4.28, N-(7-chloro-6-(1-(4-hydroxy-3-methyltetrahydrofuran-3-yl)piperidin-4-yl)isoquinolin-3-yl)-2-(dimethylamino)bicyclo[3.1.0]hexane-6-carboxamide]

Row | Compound | IC50 [nM]
33 | O=C(Nc1cc2cc(C3CCN(C4COC4)CC3)c(Cl)cc2cn1)C1CC12CC2 (single isomer, unassigned) [Ex-9.2] | 1.45
